Measured values taken from patent publication US6900200B2, “Tricyclic hydroxy carboxamides and derivatives thereof tocolytic oxytocin receptor antagonists” (Wyeth, priority 2001, dated 2005).
pIC50: −log10 of the molar value.

Target: T1, human vasopressin V1a receptor subtype (Homo sapiens, UniProt P37288)
T1 construct: host or cells: CHO cells; pZeoSV vector for the Thibonnier line
Test: Vasopressin binding in CHO cell membranes expressing human vasopressin V1a subtype receptors ([3H]Manning ligand radioligand binding)
Conditions: for inhibition at 0.1 µM: @ 100 nM
Text: Vasopressin Binding in Chinese Hamster Ovary Cell Membranes Expressing Human Vasopressin V1a Subtype Receptors
Chinese hamster ovary cells (CHO cells) stably transfected with the human vasopressin V1a subtype receptors were either obtained from BioSignal Inc., 1744 rue Williams, Montreal, Quebec, Canada or obtained from M. Thibonnier, Case Western Reserve University School of Medicine, Cleveland, Ohio.
A. Passaging and Amplification of Cells
CHO cells transfected with the human vasopressin V1a subtype receptors obtained from M. Thibonnier (pZeoSV vector) are allowed to grow to confluency (approx. >90%) in T-150 flasks under sterile conditions, in a cell culture medium of F-12 Nutrient Mixture (HAM) with L-glutamine (Gibco Cat. #11765-054) containing 15 mM HEPES (Gibco Cat. #15630-080), 1% antibiotic/antimycotic (add 5 mL 100×, Gibco Cat. #15240-062 per 500 mL F-12), 250 μg/mL Zeocin (add 1.25 mL of 100 mg/mL Invitrogen R-250-01 per 500 mL F-12) and 10% Fetal Bovine Serum (Qualified, heat inactivated, Gibco Cat. #16140-063). The medium is removed by aspiration and the cells are washed with 10 mL of Hank's Balanced Salt solution (Gibco Cat. #14175-095). The salt solution is removed by aspiration and the cells are trypsinized with 5 mL of trypsin-EDTA (0.05% trypsin, 0.53 mM EDTA-4Na, Gibco Cat. #25300-070) for 1 min. The trypsin is removed by aspiration and the cells dislodged by tapping. Cell Culture medium (e.g. 30 mL for 1:30 split) is immediately added and mixed well to inactivate trypsin. 1 mL of detached cells is added to new culture flasks containing fresh cell culture medium (e.g., into 25 mL per T-150 flask), and mixed gently. The cells are incubated at 37° C. in 5% CO2. The medium is changed at 3 to 4 days interval (or as appropriate). The cells grow to confluency (approx. >75%-95%) within 7-8 days. All steps are done under sterile conditions.
The cells are washed twice gently with Hank's Balanced Salt solution (e.g,. use 10 mL per T-150 flask). The excess is removed and the cells are bathed for 15-30 min. in an enzyme-free Cell Dissociation Buffer (e.g. use 8 mL Hank's Based, Gibco Cat. #13150-016 per T-150 flask) until the cells are loosened. The contents are transferred to centrifuge tubes (50 mL) kept in an ice bath. All subsequent steps are done at 4° C. The tubes are centrifuged at 300×g for 15 min (1380 rpm on SORVAL, Model RT6000D, using the rotor for 50 mL tubes). The supernatant is discarded and the cells suspended in homogenizing buffer(10 mM Tris-HCl containing 0.25 M sucrose and 1 mM EDTA, pH 7.4) ensuring that the volume of the buffer is about ten times the volume of the cell pellet. The cells are pooled into a centrifuge tube (50 mL) and homogenized with Polytron at setting 6 for 10 sec. The homogenate is transferred into a Potter-Elvjehm homogenizer and homogenized with 3 strokes. The homogenate is centrifuged at 1500×g for 10 min at 4° C. (3100 rpm using SORVAL, model RT6000D, using the rotor for 50 mL tubes). The pellet is discarded. The supernatant is centrifuged at 100,000×g for 60 min. at 4° C. (Beckman L8-80M ultracentrifuge; spin at 37,500 rpm with rotor type 70 Ti for 50 mL tubes; 38,000 rpm with type 80Ti for 15 mL tubes; or 35,800 rpm with rotor type 45Ti). The supernantant is discarded and the pellet suspended in 3 to 4 mL of Tris buffer (50 mM TRIS—HCl, pH 7.4). The protein content is estimated by the Bradford or Lowry method. The volume of the membrane suspension is adjusted with the membrane buffer (50 mM Tris-HCl containing 0.1% BSA and 0.1 mM PMSF) to give 3.0 mg/mL (or as appropriate) of protein. The membranes are aliquoted and stored at −70° C.
C. Radioligand Binding Assay […]

T1 sequence (P37288 whole entry): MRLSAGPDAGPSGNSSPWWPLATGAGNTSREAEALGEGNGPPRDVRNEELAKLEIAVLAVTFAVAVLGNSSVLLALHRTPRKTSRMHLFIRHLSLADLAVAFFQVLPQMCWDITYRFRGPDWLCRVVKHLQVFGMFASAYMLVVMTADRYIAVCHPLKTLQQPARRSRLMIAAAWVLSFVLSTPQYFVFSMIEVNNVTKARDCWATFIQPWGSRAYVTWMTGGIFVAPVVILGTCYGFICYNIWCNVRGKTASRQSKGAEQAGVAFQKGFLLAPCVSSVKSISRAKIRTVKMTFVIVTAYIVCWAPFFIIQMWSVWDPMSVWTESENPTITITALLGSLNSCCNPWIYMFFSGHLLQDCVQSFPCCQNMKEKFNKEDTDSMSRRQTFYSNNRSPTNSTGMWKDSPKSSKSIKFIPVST

inhibition at 0.1 µM	Compound	pIC50 (value printed in parentheses)
1%	COc1cccc(-c2cc(OC)c(C(=O)N3Cc4ccc(C(=O)N5CCN(CCO)CC5)n4Cc4ccccc43)cc2Cl)c1 [Example 49, {10-[(6-Chloro-3,3′-dimethoxy[1,1′-biphenyl]-4-yl)carbonyl]-10,11-dihydro-5H-pyrrolo[2,1-c][1,4]benzodiazepin-3-yl}[4-(2-hydroxyethyl)-1-piperazinyl]methanone]	
52%	COc1cccc(-c2ccc(C(=O)N3Cc4ccc(C(=O)N5CCN(CCO)CC5)n4Cc4ccccc43)cc2OC)c1 [Example 50, {10-[(2,3′-Dimethoxy[1,1′-biphenyl]-4-yl)carbonyl]-10,11-dihydro-5H-pyrrolo[2,1-c][1,4]benzodiazepin-3-yl}[4-(2-hydroxyethyl)-1-piperazinyl]methanone]	
7%	COc1cc(C(=O)N2Cc3ccc(C(=O)N4CCN(CCO)CC4)n3Cc3ccccc32)ccc1-n1c(C)ccc1C [Example 52, {10-[4-(2,5-Dimethyl-1H-pyrrol-1-yl)-3-methoxybenzoyl]-10,11-dihydro-5H-pyrrolo[2,1-c][1,4]benzodiazepin-3-yl}[4-(2-hydroxyethyl)-1-piperazinyl]methanone]	
	{(2S)-1-[(10-{[2-Methoxy-2(trifluoromethyl)[1,1′-biphenyl]-4-yl]carbonyl}-10,11-dihydro-5H-pyrrolo[2,1-c][1,4]benzodiazepin-3-yl)carbonyl]pyrrolidin-2-yl}-methanol [Example 36]	5.82
